Test [1] concerns the target T1, flavin binding site of complex I (IF) (Rattus norvegicus, UniProt Q5XIH3).
T1 construct: freshly isolated muscle mitochondria were assayed; from tissue; host or cells: rat skeletal muscle mitochondria (Wistar, Harlan Laboratories)
The test can be described thus: High-throughput screen: ROS production from flavin binding site of complex I (IF). It is filed as biochemical.

In test [2] the test system is mitochondrial respiration. The test can be described thus: Mitochondrial respiration, Seahorse XF24. In kind it is biochemical, rat. The note with it: complex I, complex II or glycerol phosphate substrates; states 2, 3, 4. The method, then:
Measurements of ΔΨm described in the previous examples were made under “resting” conditions in which substrates were present but ΔΨm was not coupled to ATP (energy) production by mitochondria. To test the effect of candidate compounds on mitochondrial bioenergetics under energy producing conditions, respiratory coupling parameters were measured in isolated mitochondria in microplate format using a Seahorse XF 24 analyzer (Rogers, G. et al. (2011) High Throughput Microplate Respiratory Measurements Using Minimal Quantities of Isolated Mitochondria. PLoS One. 6(7): e21746). […] ATP synthesis was terminated by injection of oligomycin (0.5 μg/mL) and leak-dependent respiration was measured (state 4o). Finally, the complex III inhibitors antimycin A (2.5 uM) and myxothiazol (2 μM) were injected to terminate respiration. Respiratory profiles were evaluated for signs of inhibition (decreased states 2, 3, or 4o) or uncoupling (increased states 2 or 4o) by candidate compounds. Seahorse XF experiments were performed in a mannitol-sucrose based buffer as described in Rogers et al. 2011. For respiration experiments driven by glycerol phosphate, this buffer was supplemented with CaCl2 to a final free concentration of 250 nM.

For test [3], the target named is T2, succinate dehydrogenase/complex II (SDH) (Rattus norvegicus, UniProt P21913+Q641Z9+Q6PCT8+Q920L2).
T2 construct: freshly isolated muscle mitochondria were assayed; from tissue; host or cells: rat skeletal muscle mitochondria (Wistar, Harlan Laboratories)
Description: High-throughput screen: ROS production from succinate dehydrogenase/complex II (SDH). It is filed as biochemical. The note with it: percent change in ROS from DMSO controls.

The subject of test [4] is mitochondrial membrane potential (ΔΨm). The test can be described thus: Membrane potential (ΔΨm) counterscreen with TMRM. The note with it: malate, nigericin. In general terms: The purpose of a counterscreen is to sort out artefacts and off-target activity.
Test [5] has as its target T3, glycerol-3-phosphate dehydrogenase (GPDH) (Rattus norvegicus, UniProt P35571).
T3 construct: The activity of GPDH in intact mitochondria (0.3 mg/mL) was measured; from tissue; host or cells: rat skeletal muscle mitochondria (Wistar, Harlan Laboratories)
T3 sequence (P35571 43-727): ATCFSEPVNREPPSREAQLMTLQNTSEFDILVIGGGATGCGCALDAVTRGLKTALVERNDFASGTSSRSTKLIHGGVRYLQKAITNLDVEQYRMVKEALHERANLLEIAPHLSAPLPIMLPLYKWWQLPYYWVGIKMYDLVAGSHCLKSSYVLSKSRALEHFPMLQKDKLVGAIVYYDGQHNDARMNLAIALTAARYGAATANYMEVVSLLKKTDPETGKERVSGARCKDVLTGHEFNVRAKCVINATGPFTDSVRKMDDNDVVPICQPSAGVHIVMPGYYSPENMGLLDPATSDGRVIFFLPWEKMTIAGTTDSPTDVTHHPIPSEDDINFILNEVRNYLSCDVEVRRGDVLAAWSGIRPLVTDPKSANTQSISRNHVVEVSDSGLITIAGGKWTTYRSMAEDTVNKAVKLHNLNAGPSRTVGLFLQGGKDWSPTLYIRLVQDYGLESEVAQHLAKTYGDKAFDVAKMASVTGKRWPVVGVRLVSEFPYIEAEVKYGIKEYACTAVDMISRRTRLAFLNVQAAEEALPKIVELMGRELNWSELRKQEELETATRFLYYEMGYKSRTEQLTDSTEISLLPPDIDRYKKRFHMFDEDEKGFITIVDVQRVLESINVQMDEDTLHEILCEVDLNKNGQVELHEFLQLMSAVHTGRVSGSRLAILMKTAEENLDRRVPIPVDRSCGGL
Description: High-throughput screen: ROS production from glycerol-3-phosphate dehydrogenase (GPDH). In kind it is biochemical. The arrangement: inhibition: dose or concentration left out as unconfirmed. Particulars: for GPDH / inhibition: percent change in ROS from DMSO controls; for inhibition at 2.5 µM: Table 6, 25 mM glycerol phosphate, rotenone, antimycin A, malonate, myxothiazol, compounds 2.5 μM, scaled to IQ positive controls, read-out: % Reduction in ROS Production (GPDH).

The target in test [6] is T4, outer ubiquinone binding site of complex III (IIIQO) (Rattus norvegicus, UniProt P00159+P20788).
T4 construct: freshly isolated muscle mitochondria were assayed; from tissue; host or cells: rat skeletal muscle mitochondria (Wistar, Harlan Laboratories)
Description: High-throughput screen: ROS production from outer ubiquinone binding site of complex III (IIIQO). In kind it is biochemical.

The test system of test [7] is ubiquinone binding site of complex I (IQ). Description: High-throughput screen: ROS production from ubiquinone binding site of complex I (IQ), isolated skeletal muscle mitochondria. It is filed as biochemical, rat. The note with it: for IQ: percent change in ROS from DMSO controls.
Description: Skeletal muscle mitochondria were isolated from 5-8 week old female Wistar rats (Harlan Laboratories). Minced muscle was homogenized in buffer containing bacterial protease Type VIII prior to differential centrifugation to separate mitochondria from other tissue components. Unless otherwise stated, freshly isolated muscle mitochondria were assayed in buffer containing 120 mM KCl, 5 mM HEPES, 1 mM EGTA, 0.3% (w/v) bovine serum albumin. Where indicated, CaCl2 was added to yield a final free concentration of 250 nM calcium at pH 7.0 at 37° C.
Compounds (10 mM in DMSO) were randomly selected from a library of 24,000 compounds obtained from ChemBridge and curated by the lab of Robert Hughes at the Buck Institute. Master screening plates were prepared using a Biomek FX liquid handling workstation (Beckman) to transfer 1 μL of each compound into individual wells on 96-well storage plates (80 compounds per plate). Master plates were sealed with foil and stored at −80° C. Just prior to use, plates were brought to room temperature and diluted 300-fold with standard buffer (13.3X=33.3 μM). To monitor the performance of each assay throughout screening and to provide intra-plate normalization reference points, DMSO negative controls and known mitochondrial inhibitor positive controls were included on each Master compound plate.
Total amounts of superoxide and H2O2 production were determined fluorometrically as H2O2, without distinguishing between them, in the presence of exogenous superoxide dismutase (25 units/mL final), horseradish peroxidase (1 unit/mL final), and Amplex UltraRed (25 μM final) as described (Affourtit, C. et al. (2012) Measurement of proton leak and electron leak in isolated mitochondria. Methods Mol. Biol. 810: 165-82). Just prior to use, a bulk 3.3X solution was made in standard buffer and distributed into a 2 mL deep well 96-well transfer plate.
To assess the effects of a compound on ROS production from the ubiquinone binding site of complex I (IQ), Start Solution containing 5 mM succinate was distributed into standard 96-well transfer plates. A Biomek FX workstation was programmed to dispense solutions into black 96-well assay plates. Solutions were dispensed to all assay plates in the following order: ROS Detection solution described in Example 3, Mitochondria solution described in Example 1 to a final concentration of 0.1 mg/ml, and Compound dilutions described in Example 2. Duplicate assay plates were made and each was initiated by the addition of 3.3X Start solution containing 5 mM succinate. Plates were incubated in the dark at room temperature for 30-40 minutes before acquiring endpoint fluorescence using a Victor 3V plate reader (Perkin Elmer) equipped with 550/590 nm excitation/emission filters.
The fluorescence values in each well were scaled as the percent change from the intra-plate DMSO controls with the appropriate inhibitor positive controls defined as −100%. Following initial scaling, intra-plate normalized values were subjected to Tukey's two-way median polish to remove row and column dependent positional effects (Malo et al, 2006).
The test system of test [8] is mitochondrial membrane potential (ΔΨm). Description: Retest ΔΨm assays (different substrates, with and without nigericin). In kind it is biochemical, rat. Particulars: various substrates. The procedure:
The five core ROS assays and single ΔΨm assay were carried out as in the initial high-throughput screen. In addition, several assays were included to help validate the specificity of the compounds for a given site of production. […] The use of different substrates was designed to reveal compounds that disrupt mitochondrial function in a substrate specific manner. […] Most frequently, these changes involved the use of different substrates to supply electrons from an alternative entry point in the chain. If a site of ROS production is being targeted selectively by a compound, then in many cases the supply of electrons should not influence the effectiveness of this compound at suppressing ROS production. […] Candidate compounds that remained site-selective following robotics assisted retesting were subsequently tested for effects on ROS production and ΔΨm with a Varian Cary Eclipse fluorimeter (excitation 550 nm, emission at 590 nm). This experimental format allows kinetic measurements of ROS production and ΔΨm with more accurate temperature control, sample stirring, and background correction. […] Conditions were generally as described for the various microplate assays with the following exceptions: HRP was increased to 5 units/mL, Amplex UltraRed was increased to 50 μM, temperature was always 37° C., samples were continuously stirred, and baseline rates of fluorescence change in the absence of substrate were acquired prior to their addition. Example protocols for cuvette based measurement of site IQ and site IIIQo ROS production are described in Affourtit et al., 2012. […] Biochim. Biophys. Acta. 1777(5): 397-403. An additional advantage of the kinetic cuvette based assays was the ability to perform inline additions to monitor the relative effect of a test compound against multiple conditions in the same cuvette. Therefore, the selectivity of a compound for one site of ROS production can be monitored by adding substrates and select known inhibitors in defined sequences to alternately provide and trap electrons at various sites in the chain. […]

Setting [9] is: Table 7, percent change in ROS from DMSO controls.
Where [10] appears, read: Table 8, percent change in ROS from DMSO controls.
The mark [11] stands for this setting: Table 9, percent change in ROS from DMSO controls.
[12] abbreviates: Table 3, 5 mM glutamate, 5 mM malate, 4 μM rotenone, compounds 2.5 μM, percent change from DMSO, positive control −100%, read-out: % Reduction in ROS production (IF).
[13] abbreviates: Table 7, percent change in ROS from DMSO controls, read-out: IF.
The mark [14] stands for this setting: Table 7, percent change in ROS from DMSO controls, read-out: IIIQO.
Where [15] appears, read: Table 9, percent change in ROS from DMSO controls, read-out: IIIQo.

The structures appear in SMILES notation. “Also recorded” adds a separate entry of the source. Read-outs that look alike come from different tables or passages of the source.

T2 sequence (Q920L2 35-656): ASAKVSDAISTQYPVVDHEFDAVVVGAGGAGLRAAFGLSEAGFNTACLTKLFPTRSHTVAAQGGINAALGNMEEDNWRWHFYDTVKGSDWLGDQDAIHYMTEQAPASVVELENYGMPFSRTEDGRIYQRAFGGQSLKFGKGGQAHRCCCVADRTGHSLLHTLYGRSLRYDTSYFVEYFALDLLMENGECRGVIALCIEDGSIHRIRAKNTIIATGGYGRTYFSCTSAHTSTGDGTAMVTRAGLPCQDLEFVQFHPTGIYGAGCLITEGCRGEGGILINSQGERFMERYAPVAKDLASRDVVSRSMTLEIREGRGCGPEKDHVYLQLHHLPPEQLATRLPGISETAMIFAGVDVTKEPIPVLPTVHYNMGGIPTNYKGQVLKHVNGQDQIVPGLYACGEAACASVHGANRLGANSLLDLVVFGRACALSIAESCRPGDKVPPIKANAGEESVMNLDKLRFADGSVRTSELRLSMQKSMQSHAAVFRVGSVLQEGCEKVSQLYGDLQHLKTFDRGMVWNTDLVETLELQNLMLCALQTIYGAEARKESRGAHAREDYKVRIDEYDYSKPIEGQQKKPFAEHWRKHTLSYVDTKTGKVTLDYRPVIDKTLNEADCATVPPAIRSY
T2 sequence (P21913 31-282): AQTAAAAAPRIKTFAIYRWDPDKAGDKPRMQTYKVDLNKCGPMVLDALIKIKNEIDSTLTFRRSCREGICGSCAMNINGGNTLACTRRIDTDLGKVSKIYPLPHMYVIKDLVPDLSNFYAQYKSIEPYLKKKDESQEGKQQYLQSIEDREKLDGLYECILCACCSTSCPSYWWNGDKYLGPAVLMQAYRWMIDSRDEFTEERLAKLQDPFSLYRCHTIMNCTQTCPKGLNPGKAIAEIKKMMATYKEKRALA
T2 sequence (Q641Z9 30-169 limits assumed): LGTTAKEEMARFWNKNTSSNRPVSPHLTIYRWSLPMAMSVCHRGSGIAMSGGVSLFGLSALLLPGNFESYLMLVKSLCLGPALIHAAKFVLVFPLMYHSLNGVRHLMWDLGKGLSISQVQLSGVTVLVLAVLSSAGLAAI
T2 sequence (Q6PCT8 57-159): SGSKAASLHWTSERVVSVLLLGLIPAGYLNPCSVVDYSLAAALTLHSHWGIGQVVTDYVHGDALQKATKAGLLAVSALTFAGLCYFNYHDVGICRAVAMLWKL
T1 sequence (Q5XIH3 21-464 limits assumed, one chain of several): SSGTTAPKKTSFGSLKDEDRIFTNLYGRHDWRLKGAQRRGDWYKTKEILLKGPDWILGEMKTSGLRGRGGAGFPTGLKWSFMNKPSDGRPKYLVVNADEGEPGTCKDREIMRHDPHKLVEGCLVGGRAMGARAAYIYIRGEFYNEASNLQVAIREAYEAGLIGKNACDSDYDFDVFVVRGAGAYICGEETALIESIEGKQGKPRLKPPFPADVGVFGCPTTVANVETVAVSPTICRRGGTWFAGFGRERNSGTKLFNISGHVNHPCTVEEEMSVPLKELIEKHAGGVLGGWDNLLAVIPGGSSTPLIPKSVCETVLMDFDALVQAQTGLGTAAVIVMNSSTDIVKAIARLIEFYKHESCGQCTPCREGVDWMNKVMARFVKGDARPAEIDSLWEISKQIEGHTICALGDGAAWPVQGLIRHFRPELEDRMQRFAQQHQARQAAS

Consider `O=[N+]([O-])c1ccc(Oc2ccc(S(=O)(=O)NC3CCCCC3)cc2)cc1` [Compound 4], for which the IF in test [1] (setting [9]), in test [1] (setting [10]) and in test [1] (setting [11]) was 3.1 in each case. The “effect on mitochondrial respiration” value in test [2] is recorded as “did not significantly inhibit or show signs of uncoupling respiration under any conditions except at 80 uM; also recorded: does not inhibit forward electron flow through CI”. The SDH in test [3] (Table 7), in test [3] (Table 8) and in test [3] (Table 9) was 0.8 throughout. In addition, the ΔΨm in test [4] (Table 8, glutamate) was −0.9; in test [4] (Table 9, glutamate) it was −0.9. Moreover, the GPDH in test [5] (Table 7), in test [5] (Table 8) and in test [5] (Table 9) was 2.8 in each case. For the same compound, the IIIQO in test [6] (setting [9]), in test [6] (setting [10]) and in test [6] (setting [11]) was −0.3 throughout. In addition, in test [7] (Table 2, 5 mM succinate, compounds 2.5 μM, percent change from DMSO, positive control −100%), the “% Reduction in ROS production (IQ)” value was −47.9%. Besides, the IQ in test [7] (Table 7), in test [7] (Table 8) and in test [7] (Table 9) was −47.9 throughout.

As to `O=C(O)C1CCCCC1C(=O)NC1CCCCC1` (stereo not shown) [Compound 19], the inhibition at 2.5 µM is 25.6% in test [1] (setting [12]), 25.6% in test [1] (setting [13]), -1.2% in test [6] (setting [14]) and -1.2% in test [6] (setting [15]). In addition, the IF in test [1] (setting [10]) and in test [1] (setting [11]) was −25.6 throughout. Also, the “effect on mitochondrial respiration” value in test [2] is “inhibits ADP-stimulated respiration with complex I substrates; also recorded: no signs of uncoupling but did reveal a progressive inhibition of state 3 respiration (ATP producing) only with CI substrates”. The ΔΨm is on record as −1.4 in test [4] (Table 8, glutamate) and −1.4 in test [4] (Table 9, glutamate). In addition, in test [5] (Table 7), the inhibition worked out at 1%. Also, the GPDH in test [5] (Table 8) and in test [5] (Table 9) was −1.0 throughout. The IIIQO in test [6] (setting [10]) is listed as 1.2. Moreover, the IQ in test [7] (Table 7), in test [7] (Table 8) and in test [7] (Table 9) was 0.0 throughout.

As to `COc1cc(CN(CCN(C)C)Cc2ccccc2)cc(OC)c1` [Compound 31], the inhibition at 2.5 µM stood at 7.6% in test [1] (setting [12]); 7.6% in test [1] (setting [13]); 6% in test [3] (Table 7); 1.4% in test [6] (setting [14]); 1.4% in test [6] (setting [15]). Moreover, the IF in test [1] (setting [10]) and in test [1] (setting [11]) was −7.6 each time. Also, the SDH in test [3] (Table 8) and in test [3] (Table 9) was −6.0 each time. Besides, the ΔΨm in test [4] (Table 8, glutamate) is on record as 0.3; in test [4] (Table 9, glutamate), 0.3. The inhibition in test [5] (Table 7) is -0.5%. The GPDH in test [5] (Table 8) and in test [5] (Table 9) was 0.5 in each case. This compound also returned an IIIQO in test [6] (setting [10]) of −1.4. Further, the IQ in test [7] (Table 7), in test [7] (Table 8) and in test [7] (Table 9) was −1.4 each time.

With `CC1=CC(C)(C)N(Cc2ccc([N+](=O)[O-])cc2)c2ccccc21` [Compound 37], the inhibition at 2.5 µM in test [1] (setting [13]) is -0.6%; in test [3] (Table 7), -1.2%; in test [6] (Table 4, 5 mM succinate, 4 μM rotenone, 2.5 μM antimycin A, compounds 2.5 μM, percent change from DMSO, read-out: % Reduction in ROS production (IIIQO)) it was 32.1%; in test [6] (setting [14]), 32.1%; in test [6] (setting [15]) it was 32.1%. In addition, the IF in test [1] (setting [10]) and in test [1] (setting [11]) was 0.6 each time. Moreover, in test [2], the “effect on mitochondrial respiration” value was “did not uncouple state 2 respiration; also recorded: does not show signs of uncoupling state 2 respiration at high concentrations”. For the same compound, the SDH in test [3] (Table 8) and in test [3] (Table 9) was 1.2 in each case. For the same compound, the ΔΨm is 1.5 in test [4] (Table 8, glutamate) and 1.5 in test [4] (Table 9, glutamate). Moreover, in test [5] (Table 7), the inhibition was found to be 0.6%. Also, the GPDH in test [5] (Table 8) and in test [5] (Table 9) was −0.6 each time. The same compound had an IIIQO in test [6] (setting [10]) of −32.1. Also, the IQ in test [7] (Table 7), in test [7] (Table 8) and in test [7] (Table 9) was 0.3 each time.

Take `O=C(O)CSc1cccc(C(=O)Nc2ccc(Br)cc2)c1` [Compound 47]: the inhibition at 2.5 µM was 0.5% in test [1] (setting [13]); -1.3% in test [3] (Table 7); 14.1% in test [5]; 0% in test [6] (setting [14]); 0% in test [6] (setting [15]). In addition, the IF in test [1] (setting [10]) and in test [1] (setting [11]) was −0.5 throughout. The SDH in test [3] (Table 8) and in test [3] (Table 9) was 1.3 in each case. Moreover, the ΔΨm in test [4] (Table 8, glutamate) amounted to 0.0; in test [4] (Table 9, glutamate), 0.0. In test [5] (Table 7), the inhibition was found to be 14.1%. The GPDH in test [5] (Table 8) and in test [5] (Table 9) was −14.1 in each case. The compound also displayed an IIIQO in test [6] (setting [10]) of 0.0. Also, the IQ in test [7] (Table 7), in test [7] (Table 8) and in test [7] (Table 9) was −0.1 each time.

For the compound `O=C(O)CCC(=O)Nc1ccc(-c2nc3cc4ccccc4cc3[nH]2)cc1` [Compound 61], the inhibition at 2.5 µM in test [1] (setting [13]) is 4.8%; in test [3] (Table 7), 4.5%; in test [5] it was 48.3%; in test [6] (setting [14]), 2.4%. In test [5] (Table 7), the inhibition is 3.8%. In addition, the IQ in test [7] (Table 7) was −17.1. Moreover, the “effect on ΔΨm” value in test [8] is recorded as “increased off-target effect on ΔΨm in the absence of nigericin”.

(Values after patent US20140128352A1, “COMPOUNDS AND METHODS FOR MODULATING MITOCHONDRIAL METABOLISM AND REACTIVE OXYGEN SPECIES PRODUCTION” (Buck Institute for Research on Aging, priority 2012, published 2014).)
